From PMC5242348, “Triterpene Constituents of Euphorbia Erythradenia Bioss. and their Anti-HIV Activity” (Iranian Journal of Pharmaceutical Research : IJPR, 2016)

Columns and labels:
[1] = XTT-based cytotoxicity assay; conditions: human
[2] = system: single cycle replicable HIV-1 (SCR HIV-1) virions; test: microbe, parasite or virus in culture; conditions: Human immunodeficiency virus 1, HeLa, 48 h, read-out: Anti HIV activity IC50 (concentration causing 50% HIV activity inhibition)
[3] = system: single cycle replicable HIV-1 (SCR HIV-1) virions; conditions: ratio of CC50 (Hela, XTT) to IC50 (p24)

Structure (SMILES)	CC50 at 3 days [1]	IC50 [2]	Therapeutic index TI (CC50/IC50) [3]	CC50 at 3 days ([1]; HeLa cells)
CC=C(C)C(=O)OC1C(CO)C(O)C2C(=O)C3(CC(C)C(OC(=O)CCC)C13)C(C)(OC(=O)c1cccnc1)CC1(OC(C)=O)C2C1(C)C (stereo not shown) [Compound 8, 13-acetyl-5-angeloyl-11-nicotinyl-3-butanoyl-1,2,6,7-tetrahydroingenol]	168 nM	44 nM		
Cc1ccnc2c1NC(=O)c1cccnc1N2C1CC1 [Nevirapine, reference compound]	6740 nM	< 64 nM	> 105.31	
CC=C(C)C(=O)OC1C(COC(=O)c2cccnc2)C(OC(C)=O)C2C(=O)C3(CC(C)C(OC(=O)CC)C13)C(C)(O)CC1(OC(C)=O)C2C1(C)C (stereo not shown) [Compound 6, 7,13-diacetyl-5-angeloyl-20-nicotinyl-3-propionyl-1,2,6,7-tetrahydroingenol]	84 nM	7 nM	11.75	
CC1(C)CC[C@]2(C(=O)O)CC[C@]3(C)C(=CC[C@@H]4[C@@]5(C)CC[C@H](O)C(C)(C)[C@@H]5CC[C@]43C)[C@@H]2C1 [Compound 4, Oleanolic acid]	22 nM	9 nM	2.44	
CC=C(C)C(=O)OC1C(COC(=O)c2cccnc2)C(O)C2C(=O)C3(CC(C)C(OC(=O)CCC)C13)C(C)(O)CC1(OC(C)=O)C2C1(C)C (stereo not shown) [Compound 5, 13-acetyl-3-butanoyl-5-angeloyl-20-nicotinyl-1,2,6,7-tetrahydroingenol]	4 nM	36 nM	0.11	
C=C(C)C(O)CCC(C)C1CC[C@@]2(C)C3CCC4C(C)(C)[C@@H](O)CC[C@@]45C[C@@]35CC[C@]12C (stereo partly shown) [1a & 1b]		3 nM	4.67	14 nM
CC(C/C=C\C(C)(C)O)C1CC[C@@]2(C)C3CCC4C(C)(C)[C@@H](O)CC[C@@]45C[C@@]35CC[C@]12C (stereo partly drawn) [Compound 2, Cycloart-23-ene-3β,25-diol]		6 nM	3.67	22 nM
CCC(=O)OC1C(C)CC23C(=O)C(C(OC(=O)c4ccccc4)C(COC(=O)c4cccnc4)C(OC(C)=O)C12)C1C(C)(C)C1(OC(C)=O)CC3(C)O (stereo not shown) [Compound 7, 5,13-diacetyl-7-benzoyl-20-nicotinyl-3-propionyl-1,2,6,7-tetrahydroingenol]	3260 nM	8 nM		
